Peptide text beside a SMILES is read from it. * marks the point of attachment. Cbz = O=C(OCc1ccccc1)*; CH2F = FC*
Legend:
Conditions in all cases: FIGS. 6-7
[1] = tested on: UL36; experiment: Western blot screen for inhibitors: anti-HA blot of UL36 bound to HA tagged Ub-VME probe; type: binding, HSV-1
Text: FIGS. 6-7 is a series photographs showing the results of a screen for inhibitors of the Herpes deubiquitinating enzyme. The photographs show the results of Western blot assays: anti-HA blots for detecting UL36 bound to the HA tagged Ub-VME probe.

[2] = molecular target: T1, UCH-1 (Homo sapiens, UniProt P09936); experiment: Western blot inhibitor screen, HA tagged Ub-VME probe, other enzymes; type: binding
T1 sequence (P09936 1-223): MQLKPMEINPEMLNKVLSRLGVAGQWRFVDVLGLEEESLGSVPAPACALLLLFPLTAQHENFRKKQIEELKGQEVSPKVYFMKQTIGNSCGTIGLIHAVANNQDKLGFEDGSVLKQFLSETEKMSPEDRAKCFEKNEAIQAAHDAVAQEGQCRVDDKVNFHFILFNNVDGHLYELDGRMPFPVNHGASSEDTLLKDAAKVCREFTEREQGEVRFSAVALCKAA

[3] = molecular target: T2, UCH-3 (Homo sapiens, UniProt P15374); experiment: as above; type: binding
T2 sequence (P15374 1-230): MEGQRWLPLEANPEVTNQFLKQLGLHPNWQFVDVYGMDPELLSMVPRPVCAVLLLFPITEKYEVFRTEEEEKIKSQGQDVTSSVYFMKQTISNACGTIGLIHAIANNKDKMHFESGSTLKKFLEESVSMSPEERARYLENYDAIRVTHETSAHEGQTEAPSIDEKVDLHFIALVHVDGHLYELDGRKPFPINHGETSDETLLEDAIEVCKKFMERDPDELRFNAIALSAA

[4] = molecular target: USP7 (Homo sapiens, UniProt Q93009); experiment: as above; type: binding
Sequence of USP7 (Q93009 whole entry, species assumed): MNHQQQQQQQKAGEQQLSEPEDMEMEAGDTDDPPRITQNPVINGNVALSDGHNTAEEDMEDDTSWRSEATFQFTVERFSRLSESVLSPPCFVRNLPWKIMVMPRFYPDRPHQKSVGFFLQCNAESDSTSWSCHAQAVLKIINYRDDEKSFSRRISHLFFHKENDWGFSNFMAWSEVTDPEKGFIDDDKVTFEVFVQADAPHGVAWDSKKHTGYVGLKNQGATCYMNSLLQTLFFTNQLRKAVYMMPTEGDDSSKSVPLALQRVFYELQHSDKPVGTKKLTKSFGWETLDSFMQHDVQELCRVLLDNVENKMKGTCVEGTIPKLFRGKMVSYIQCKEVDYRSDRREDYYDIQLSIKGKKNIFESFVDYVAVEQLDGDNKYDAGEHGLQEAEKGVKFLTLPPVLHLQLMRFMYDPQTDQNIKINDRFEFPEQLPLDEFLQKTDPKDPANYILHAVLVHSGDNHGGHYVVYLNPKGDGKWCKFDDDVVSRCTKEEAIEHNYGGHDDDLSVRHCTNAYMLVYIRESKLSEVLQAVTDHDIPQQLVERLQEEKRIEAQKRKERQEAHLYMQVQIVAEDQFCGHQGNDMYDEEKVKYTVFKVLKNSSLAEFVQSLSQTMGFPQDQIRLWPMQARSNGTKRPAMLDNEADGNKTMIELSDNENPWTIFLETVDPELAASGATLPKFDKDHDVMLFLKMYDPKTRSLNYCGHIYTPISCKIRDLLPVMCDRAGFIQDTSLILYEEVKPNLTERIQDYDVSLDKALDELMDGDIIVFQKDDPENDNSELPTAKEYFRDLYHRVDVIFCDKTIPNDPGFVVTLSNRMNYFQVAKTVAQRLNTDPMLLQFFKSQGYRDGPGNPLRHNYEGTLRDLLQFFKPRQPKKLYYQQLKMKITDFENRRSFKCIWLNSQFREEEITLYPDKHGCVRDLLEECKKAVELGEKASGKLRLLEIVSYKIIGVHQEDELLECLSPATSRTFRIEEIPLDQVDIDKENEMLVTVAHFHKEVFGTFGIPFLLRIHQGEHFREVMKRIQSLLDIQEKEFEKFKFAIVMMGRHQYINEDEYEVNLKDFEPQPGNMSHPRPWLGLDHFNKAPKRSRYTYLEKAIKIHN

[5] = molecular target: T3, Cezanne (Homo sapiens, UniProt Q6GQQ9); experiment: as above; type: binding
T3 sequence (Q6GQQ9 1-843): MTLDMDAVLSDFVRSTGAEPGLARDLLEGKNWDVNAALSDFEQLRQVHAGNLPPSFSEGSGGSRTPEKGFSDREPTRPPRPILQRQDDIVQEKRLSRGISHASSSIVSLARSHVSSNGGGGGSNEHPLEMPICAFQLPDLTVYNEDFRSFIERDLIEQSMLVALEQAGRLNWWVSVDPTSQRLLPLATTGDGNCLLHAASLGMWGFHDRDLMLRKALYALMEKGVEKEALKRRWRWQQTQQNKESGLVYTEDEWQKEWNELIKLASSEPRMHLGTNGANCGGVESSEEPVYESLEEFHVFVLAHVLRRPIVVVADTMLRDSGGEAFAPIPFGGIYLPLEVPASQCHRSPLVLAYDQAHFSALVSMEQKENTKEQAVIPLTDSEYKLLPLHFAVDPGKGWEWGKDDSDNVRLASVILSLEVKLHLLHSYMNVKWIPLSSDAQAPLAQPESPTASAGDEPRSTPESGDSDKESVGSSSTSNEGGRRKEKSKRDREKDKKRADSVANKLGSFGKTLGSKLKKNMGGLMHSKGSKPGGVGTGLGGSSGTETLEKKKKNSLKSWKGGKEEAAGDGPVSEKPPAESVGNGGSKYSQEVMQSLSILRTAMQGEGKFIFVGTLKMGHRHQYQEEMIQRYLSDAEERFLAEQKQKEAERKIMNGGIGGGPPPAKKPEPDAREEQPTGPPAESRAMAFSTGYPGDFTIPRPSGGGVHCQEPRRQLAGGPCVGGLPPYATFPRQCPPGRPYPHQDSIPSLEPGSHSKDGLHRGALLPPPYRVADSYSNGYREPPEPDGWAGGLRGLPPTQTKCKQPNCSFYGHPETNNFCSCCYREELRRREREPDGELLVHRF

[6] = molecular target: T4, CYLD (Homo sapiens, UniProt Q9NQC7); experiment: as above; type: binding
T4 sequence (Q9NQC7 1-956): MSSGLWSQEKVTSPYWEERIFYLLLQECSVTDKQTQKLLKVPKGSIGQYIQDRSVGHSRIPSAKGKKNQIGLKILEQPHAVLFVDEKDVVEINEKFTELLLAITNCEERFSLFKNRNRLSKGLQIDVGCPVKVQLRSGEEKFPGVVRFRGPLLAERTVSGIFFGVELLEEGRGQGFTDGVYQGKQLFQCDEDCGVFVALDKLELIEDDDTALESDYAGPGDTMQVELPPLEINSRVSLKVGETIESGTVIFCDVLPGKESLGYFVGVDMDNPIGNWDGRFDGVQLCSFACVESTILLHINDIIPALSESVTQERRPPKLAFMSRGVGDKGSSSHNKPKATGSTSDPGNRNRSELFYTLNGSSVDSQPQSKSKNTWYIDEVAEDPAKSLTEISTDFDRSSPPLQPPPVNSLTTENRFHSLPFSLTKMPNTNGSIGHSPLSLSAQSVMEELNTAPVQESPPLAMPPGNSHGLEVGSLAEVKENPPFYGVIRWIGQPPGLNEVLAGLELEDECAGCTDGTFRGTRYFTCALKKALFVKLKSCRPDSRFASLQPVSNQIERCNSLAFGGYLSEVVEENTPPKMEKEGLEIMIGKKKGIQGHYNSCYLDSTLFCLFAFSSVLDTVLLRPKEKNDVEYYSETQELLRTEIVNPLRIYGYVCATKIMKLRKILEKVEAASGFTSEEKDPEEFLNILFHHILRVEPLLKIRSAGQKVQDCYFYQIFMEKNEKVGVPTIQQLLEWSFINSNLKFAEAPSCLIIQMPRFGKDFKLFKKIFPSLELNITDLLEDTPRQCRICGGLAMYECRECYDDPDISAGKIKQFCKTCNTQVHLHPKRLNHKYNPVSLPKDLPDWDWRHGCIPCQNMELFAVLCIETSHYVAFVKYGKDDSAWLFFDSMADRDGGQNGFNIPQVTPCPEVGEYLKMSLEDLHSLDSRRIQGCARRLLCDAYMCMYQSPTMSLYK

[7] = molecular target: Ataxin-3 (Homo sapiens, UniProt P54252); experiment: as above; type: binding
Sequence of Ataxin-3 (P54252 whole entry, species assumed): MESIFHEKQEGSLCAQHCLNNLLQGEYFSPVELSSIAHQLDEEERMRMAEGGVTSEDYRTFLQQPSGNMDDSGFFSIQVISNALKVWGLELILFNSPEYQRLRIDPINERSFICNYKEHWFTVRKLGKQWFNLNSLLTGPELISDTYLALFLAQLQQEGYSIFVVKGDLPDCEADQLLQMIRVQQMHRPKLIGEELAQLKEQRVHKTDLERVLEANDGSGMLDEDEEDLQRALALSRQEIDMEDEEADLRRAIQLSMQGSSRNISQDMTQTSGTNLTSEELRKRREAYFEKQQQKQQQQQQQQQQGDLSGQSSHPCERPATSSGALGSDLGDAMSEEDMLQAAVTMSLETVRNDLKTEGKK

## CC(C)[C@H](NC(=O)OCc1ccccc1)C(=O)N[C@@H](C)C(=O)N[C@@H](C)C(=O)CF [Z-VA-L-A-fink] (Cbz-Val-Ala-Ala-CH2F)
[1]
  Inhibition of UL36 (HA band of UL36 bound to HA tagged Ub-VME probe decreases or disappears): specifically inhibited
[2]
  Inhibition of UCH-1: did not inhibit
[3]
  Inhibition of UCH-3: did not inhibit
[4]
  Inhibition of USP7: did not inhibit
[5]
  Inhibition of Cezanne: did not inhibit
[6]
  Inhibition of CYLD: did not inhibit
[7]
  Inhibition of Ataxin-3: did not inhibit
